Consider three compounds from patent publication US6818622B2 (Darwin Discovery Ltd., priority 1997, dated 2004).

Molecules are shown by their SMILES. pIC50: −log10 of the molar value.

One data set deals with T1, collagenase-1 (MMP-1) (Homo sapiens, UniProt P03956).
T1 sequence (P03956 100-469): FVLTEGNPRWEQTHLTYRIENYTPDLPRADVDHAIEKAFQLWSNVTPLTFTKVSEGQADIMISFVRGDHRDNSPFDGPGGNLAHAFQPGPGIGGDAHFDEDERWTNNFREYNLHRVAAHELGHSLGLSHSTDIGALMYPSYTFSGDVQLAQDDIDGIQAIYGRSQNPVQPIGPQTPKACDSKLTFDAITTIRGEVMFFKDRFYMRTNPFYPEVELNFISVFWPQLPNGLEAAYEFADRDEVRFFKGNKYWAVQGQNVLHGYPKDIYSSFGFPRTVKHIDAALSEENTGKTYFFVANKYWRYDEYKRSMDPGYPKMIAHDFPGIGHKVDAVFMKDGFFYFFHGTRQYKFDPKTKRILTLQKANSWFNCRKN
In words: MMP inhibition activity fluorimetric assay (Example A), MMP-1. To be noted: fluorimetric substrate 10 μM, 37° C. The data set is classed as biochemical. As for the experimental part: (§1) The potency of inhibitors of collagenase-1 (MMP-1), collagenase-2 (MMP-8), collagenase-3 (MMP-13), gelatinase-A (MMP-2), gelatinase-B (MMP-9) and stromelysin-1 (MMP-3) is determined using the following procedure:
(§2) Inhibitors are dissolved in dimethyl sulphoxide containing 0.02% β-mercaptoethanol, and serial dilutions are prepared. Activated enzyme is incubated in assay buffer containing 50 mM Tris, pH 7.4, 5 mM CaCl2, 0.002% NaN3 and Brij 35 in the presence and absence of inhibitor. Samples are preincubated at 37° C. for 15 minutes before the addition of the fluorimetric substrate (Mca-Pro-Leu-Gly-Leu-Dpa-Ala-Arg-NH2) to a final concentration of 10 μM.
(§3) The enzyme activity is compared to activity in a control devoid of inhibitor.

In the next data set the target is collagenase-2 (MMP-8) (Homo sapiens, UniProt P22894). The data set is described as follows: MMP inhibition activity fluorimetric assay (Example A), MMP-8. The data set is classed as biochemical. The note with it: fluorimetric substrate 10 μM, 37° C. As for the experimental part: as §1, §2, §3
For another data set, the target named is collagenase-3 (MMP-13) (Homo sapiens, UniProt P45452). The data set is described as follows: MMP inhibition activity fluorimetric assay (Example A), MMP-13. Type of data set: biochemical. To be noted: fluorimetric substrate 10 μM, 37° C. As for the experimental part: as §1, §2, §3
The next data set addresses T2, gelatinase-A (MMP-2) (Homo sapiens, UniProt P08253).
T2 sequence (P08253 110-660): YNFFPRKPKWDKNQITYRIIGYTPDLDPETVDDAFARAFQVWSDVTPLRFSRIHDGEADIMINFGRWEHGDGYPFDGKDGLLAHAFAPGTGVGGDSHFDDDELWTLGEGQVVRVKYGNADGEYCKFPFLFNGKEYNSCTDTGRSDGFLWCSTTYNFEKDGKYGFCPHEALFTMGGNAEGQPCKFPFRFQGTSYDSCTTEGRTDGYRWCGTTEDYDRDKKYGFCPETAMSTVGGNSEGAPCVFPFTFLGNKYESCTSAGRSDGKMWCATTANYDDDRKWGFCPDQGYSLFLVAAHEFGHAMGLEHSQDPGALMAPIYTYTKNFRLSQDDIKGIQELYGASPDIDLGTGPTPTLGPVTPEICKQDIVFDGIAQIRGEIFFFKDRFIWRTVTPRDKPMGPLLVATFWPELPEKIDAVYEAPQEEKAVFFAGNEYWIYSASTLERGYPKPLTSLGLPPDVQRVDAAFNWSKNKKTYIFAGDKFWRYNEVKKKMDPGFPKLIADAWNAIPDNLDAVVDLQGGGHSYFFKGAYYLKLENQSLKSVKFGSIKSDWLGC
In words: MMP inhibition activity fluorimetric assay (Example A), MMP-2. The data set is classed as biochemical. To be noted: fluorimetric substrate 10 μM, 37° C. As to the method: as §1, §2, §3

A further data set deals with gelatinase-B (MMP-9) (Homo sapiens, UniProt P14780). In words: MMP inhibition activity fluorimetric assay (Example A), MMP-9. Type of data set: biochemical. To be noted: fluorimetric substrate 10 μM, 37° C. As for the experimental part:
as §1, §2, §3

The next data set deals with stromelysin-1 (MMP-3) (Homo sapiens, UniProt P08254). The data set is described as follows: MMP inhibition activity fluorimetric assay (Example A), MMP-3. Type of data set: biochemical. The note with it: fluorimetric substrate 10 μM, 37° C. As for the experimental part:
as §1, §2, §3

Data set [1] relates to production of TNFα by peripheral blood mononuclear cells (PBMC). The data set is described as follows: Inhibition of TNFα production (Example B). Type of data set: cell-based. To be noted: read-out: Example B: inhibitor concentration effecting 50% inhibition of the production of TNFα; PBMC stimulated with LPS, 18 hours, ELISA. As for the experimental part: PBMC are isolated from buffy coats by standard procedures using Ficoll. […] After 18 hours the supernatant is assayed for the levels of TNFα using a commercially available ELISA kit. The activity in the presence of 100 μM inhibitor or dilutions thereof is compared to activity in a control devoid of inhibitor.

The test system of data set [2] is L-selectin shedding by peripheral blood mononuclear cells (PBMC). The data set is described as follows: Inhibition of L-selectin shedding (Example C). The data set is classed as cell-based. To be noted: 20 min, read-out: Example C: inhibitor concentration effecting 50% inhibition of the shedding of L-selectin, PBMC stimulated with PMA, ELISA. As to the method: An assay of L-selectin shedding by peripheral blood mononuclear cells (PBMC) is conducted as follows: PBMC are isolated from buffy coats by standard procedures using Ficoll. A 100 μM solution of the inhibitor being tested or dilutions thereof is incubated for 20 min at 37° C. in an atmosphere of 5% CO2 with 4×10^6/ml PBMC stimulated with PMA. The cells are centrifuged down and the supernatants tested for sL-selectin using a commercially available ELISA kit. The activity in the presence of 100 μM inhibitor or dilutions thereof is compared to activity in a control devoid of inhibitor.
For orientation: ELISA stands for enzyme-linked immunosorbent assay.

For data set [3], the system named is sIL-1RII shedding by PBMC. The data set is described as follows: Inhibition of sIL-1RII shedding (Example D). To be noted: read-out: Example D: inhibitor concentration effecting 50% inhibition of the shedding of sIL-1RII; PBMC stimulated with IL-13, 18 h, ELISA. Type of data set: cell-based. As to the method:
An assay of sIL-1RII shedding by PBMC is conducted as follows: PBMC are isolated from buffy coats by standard procedures using Ficoll. A 100 μM solution of the inhibitor being tested or dilutions thereof are incubated for 18 h at 37° C. in an atmosphere of 5% CO2 with 2×10^6/ml PBMC stimulated with IL-13. The cells are centrifuged down and the supernatants tested for sIL-1RII using a commercially available ELISA kit. The activity in the presence of 100 μM inhibitor or dilutions thereof is compared to activity in a control devoid of inhibitor.

Data set [4] concerns sIL-6R shedding by HL-60 cells. In words: Inhibition of IL-6R shedding (Example E). Type of data set: cell-based. The note with it: Homo sapiens, read-out: Example E: inhibitor concentration effecting 50% inhibition of the shedding of IL-6R; HL-60 cells stimulated with PMA, 24 h, ELISA. As for the experimental part:
An assay of sIL-6R shedding by HL-60 cells is conducted as follows: PBMC are isolated from buffy coats by standard procedures using Ficoll. A 100 μM solution of the inhibitor being tested or dilutions thereof is incubated for 24 h at 37° C. in an atmosphere of 5% CO2 with 2×10^6/ml HL-60 cells stimulated with PMA. The cells are centrifuged down and the supernatants tested for sIl-6R using a commercially available ELISA kit. The activity in the presence of 100 μM inhibitor or dilutions thereof is compared to activity in a control devoid of inhibitor.

The subject of data set [5] is shedding of TNF RII by THP-1 cells (human monocytes). The data set is described as follows: Inhibition of TNF RII shedding (Example F). The data set is classed as cell-based. To be noted: read-out: Example F: inhibitor concentration effecting 50% inhibition of the shedding of TNF RII, THP-1 cells stimulated with LPS, 18 hours, ELISA. As for the experimental part: After 18 hours the supernatant is assayed for the levels of sTNF RII using a commercially available ELISA kit. The activity in the presence of 0.1 mM inhibitor or dilutions thereof is compared to activity in a control devoid of inhibitor.

The subject of data set [6] is marmoset joints and tendons. In words: Marmoset tendonitis study. The data set is classed as in vivo. To be noted: oral dosing at 30 and 100 mg/kg for 3 months; for Plasma levels on repeated plasma sampling: up to 9 h post-dose. As to the method: Specific examples of compounds showing the desired profile are those of Examples 1 and 2 and cpd. 3 (see below). These three compounds have been tested in the marmoset tendonitis study. This procedure for this study has been defined by Wojtowicz-Praga et al, supra. The study was performed with oral dosing at 30 and 100 mg/kg for 3 months. […] See Hooper et al, supra.

stromelysin-1 (MMP-3), sequence (P08254 100-477, species assumed): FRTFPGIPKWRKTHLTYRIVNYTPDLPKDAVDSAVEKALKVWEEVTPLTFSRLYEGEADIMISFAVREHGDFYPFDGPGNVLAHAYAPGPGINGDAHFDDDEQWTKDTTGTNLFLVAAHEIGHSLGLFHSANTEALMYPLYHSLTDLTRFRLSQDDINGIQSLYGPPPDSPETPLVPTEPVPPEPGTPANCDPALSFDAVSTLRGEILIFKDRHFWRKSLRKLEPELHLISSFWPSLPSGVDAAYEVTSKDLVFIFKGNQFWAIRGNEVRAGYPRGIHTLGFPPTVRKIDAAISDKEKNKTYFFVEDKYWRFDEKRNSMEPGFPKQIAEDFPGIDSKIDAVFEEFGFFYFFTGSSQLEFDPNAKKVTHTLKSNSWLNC
gelatinase-B (MMP-9), sequence (P14780 107-707 limits assumed, species assumed): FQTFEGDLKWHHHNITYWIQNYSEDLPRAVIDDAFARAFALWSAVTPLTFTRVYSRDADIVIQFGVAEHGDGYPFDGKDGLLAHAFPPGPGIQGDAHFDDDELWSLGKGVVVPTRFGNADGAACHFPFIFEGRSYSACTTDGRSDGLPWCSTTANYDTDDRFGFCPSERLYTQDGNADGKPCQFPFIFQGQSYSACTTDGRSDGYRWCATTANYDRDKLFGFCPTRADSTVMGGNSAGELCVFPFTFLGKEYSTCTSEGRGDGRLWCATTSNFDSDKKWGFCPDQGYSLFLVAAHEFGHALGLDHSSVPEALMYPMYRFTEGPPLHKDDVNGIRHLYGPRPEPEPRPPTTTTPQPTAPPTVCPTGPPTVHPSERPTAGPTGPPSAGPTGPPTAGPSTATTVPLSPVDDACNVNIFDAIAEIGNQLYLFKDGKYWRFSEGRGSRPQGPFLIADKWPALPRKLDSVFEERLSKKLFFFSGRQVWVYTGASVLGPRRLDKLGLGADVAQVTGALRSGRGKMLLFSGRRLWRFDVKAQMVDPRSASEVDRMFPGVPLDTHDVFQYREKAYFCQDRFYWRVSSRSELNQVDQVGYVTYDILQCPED
collagenase-2 (MMP-8), sequence (P22894 101-467, species assumed): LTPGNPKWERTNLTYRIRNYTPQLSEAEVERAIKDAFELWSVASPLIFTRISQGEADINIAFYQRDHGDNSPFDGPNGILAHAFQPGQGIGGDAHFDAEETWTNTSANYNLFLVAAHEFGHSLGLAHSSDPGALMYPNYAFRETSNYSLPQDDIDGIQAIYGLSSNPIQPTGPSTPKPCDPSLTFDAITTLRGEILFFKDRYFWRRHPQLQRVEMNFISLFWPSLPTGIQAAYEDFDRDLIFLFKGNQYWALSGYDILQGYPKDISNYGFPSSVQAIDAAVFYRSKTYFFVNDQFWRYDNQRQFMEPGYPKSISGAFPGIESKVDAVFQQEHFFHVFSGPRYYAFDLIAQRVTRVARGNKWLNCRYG

Take `CNC(=O)[C@@H](NC(=O)[C@H](CC(C)C)NC(=O)[C@@H](S)CCCN1C(=O)c2ccccc2C1=O)C(C)(C)C` [Cpd. 3, (S)-N-[2-mercapto-5-phthalimido]pentanoyl-L-leucyl-(S)-tert-leucine N-methylamide]: the pIC50 on collagenase-1 (MMP-1) was 7.55; at collagenase-2 (MMP-8), 8.05; against collagenase-3 (MMP-13), 8.70; against gelatinase-A (MMP-2) it was 7.82; at gelatinase-B (MMP-9), 8.30; at stromelysin-1 (MMP-3), 6.75. The pIC50 in [1] is 5.00; in data set [2], under 4.30; in [3], under 4.30; in data set [4], under 4.30; in data set [5], under 4.30. Also, in [6], the Continuous clinical observation result was “no adverse effects”. Further, in data set [6], the “Histological observation of joints and tendons” value (“Histological observation” for short) was “no adverse effects on joints and tendons”. Moreover, the “Plasma levels on repeated plasma sampling” value (“Plasma levels” for short) in data set [6] is given as “sustained levels in excess of the enzymes' IC50”.
Consider `CNC(=O)[C@@H](NC(=O)[C@H](CC(C)C)NC(=O)[C@@H](S)CCN1C(=O)CCC1=O)C(C)(C)C` [Ex. 1, 2S-[4-(2,5-Dioxopyrrolidin-1-yl)-2S-mercaptobutyrylamino]-4-methylpentanoic Acid (2,2-Dimethyl-1S-methylcarbamoylpropyl)-amide], for which the pIC50 on collagenase-1 (MMP-1) was 7.92; on collagenase-2 (MMP-8) it was 8.00; on collagenase-3 (MMP-13) it was 8.40; against gelatinase-A (MMP-2) it was 6.89; on gelatinase-B (MMP-9), 7.28; on stromelysin-1 (MMP-3), 6.42. Further, the pIC50 was under 4.30 in [1]; under 4.30 in data set [2]; 4.42 in data set [3]; under 4.30 in data set [4]; under 4.30 in data set [5]. Also, the Continuous clinical observation entry in data set [6] is listed as “no adverse effects”. In addition, the “Histological observation” value in data set [6] was “no adverse effects on joints and tendons”. The “Plasma levels” value in data set [6] is “sustained levels in excess of the enzymes' IC50”.
Regarding `CNC(=O)[C@@H](NC(=O)[C@H](CC(C)C)NC(=O)[C@@H](S)CCN1C(=O)N(C)C(C)(C)C1=O)C(C)(C)C` [Ex. 2, 2S-[2S-Mercapto-4-(3,4,4-trimethyl-2,5-dioxoimidazolidin-1-yl)butyrylamino]-4-methylpentanoic Acid (2,2-Dimethyl-1S-methylcarbamoylpropyl)amide], the pIC50 at collagenase-1 (MMP-1) is 7.60; at collagenase-2 (MMP-8), 8.00; against collagenase-3 (MMP-13), 8.40; at gelatinase-A (MMP-2) it was 7.39; against gelatinase-B (MMP-9), 7.60; against stromelysin-1 (MMP-3) it was 6.80. The pIC50 in [1], in data set [2], in [3], in [4] and in data set [5] was under 4.30 each time. Further, in data set [6], the Continuous clinical observation entry is recorded as “no adverse effects”. Further, in data set [6], the “Histological observation” value was “no adverse effects on joints and tendons”. Besides, the “Plasma levels” value in [6] was “sustained levels in excess of the enzymes' IC50”.
